What was measured:
[1] = biological target: Calcium/calmodulin-dependent protein kinase kinase 1 (Homo sapiens) (UniProt Q8N5S9); conditions: Compound concentration 1000.0 nM
[2] = biological target: Serine/threonine-protein kinase 32A (Homo sapiens) (UniProt Q8WU08); conditions: Compound concentration 1000.0 nM
[3] = biological target: RAC-gamma serine/threonine-protein kinase (Homo sapiens) (UniProt Q9Y243); conditions: Compound concentration 1000.0 nM
[4] = biological target: G protein-coupled receptor kinase 3 (Homo sapiens) (UniProt P35626); conditions: Compound concentration 1000.0 nM
[5] = biological target: Calcium/calmodulin-dependent protein kinase type II subunit alpha (Homo sapiens) (UniProt Q9UQM7); conditions: Compound concentration 1000.0 nM
[6] = biological target: Serine/threonine-protein kinase MRCK gamma (Homo sapiens) (UniProt Q6DT37); conditions: Compound concentration 1000.0 nM
[7] = biological target: Mitogen-activated protein kinase kinase kinase 2 (Homo sapiens) (UniProt Q9Y2U5); conditions: Compound concentration 1000.0 nM
[8] = biological target: Serine/threonine-protein kinase 17B (Homo sapiens) (UniProt O94768); conditions: Compound concentration 1000.0 nM
[9] = biological target: D(4) dopamine receptor (Homo sapiens) (UniProt P21917); conditions: Compound concentration 10.0 uM
[10] = biological target: Mitogen-activated protein kinase kinase kinase 11 (Homo sapiens) (UniProt Q16584); conditions: Compound concentration 1000.0 nM
[11] = tested on: Mast/stem cell growth factor receptor Kit (Homo sapiens), P10721 [V559D,T670I]; conditions: Compound concentration 1000.0 nM
[12] = tested on: Phosphatidylinositol 4,5-bisphosphate 3-kinase catalytic subunit alpha isoform (Homo sapiens), P42336 [H1047L]; conditions: Compound concentration 1000.0 nM
[13] = tested on: ALK tyrosine kinase receptor (Homo sapiens), Q9UM73 [L1196M]; conditions: Compound concentration 1000.0 nM
[14] = tested on: Mast/stem cell growth factor receptor Kit (Homo sapiens), P10721 [D816V]; conditions: Compound concentration 1000.0 nM
[15] = biological target: Interleukin-1 receptor-associated kinase 3 (Homo sapiens) (UniProt Q9Y616); conditions: Compound concentration 1000.0 nM
[16] = tested on: Phosphatidylinositol 4,5-bisphosphate 3-kinase catalytic subunit alpha isoform (Homo sapiens), P42336 [H1047Y]; conditions: Compound concentration 1000.0 nM
[17] = tested on: Hepatocyte growth factor receptor (Homo sapiens), P08581 [Y1235D]; conditions: Compound concentration 1000.0 nM
[18] = biological target: Serine/threonine-protein kinase Nek10 (Homo sapiens) (UniProt Q6ZWH5); conditions: Compound concentration 1000.0 nM
[19] = biological target: cGMP-dependent protein kinase 2 (Homo sapiens) (UniProt Q13237); conditions: Compound concentration 1000.0 nM
[20] = biological target: Mitogen-activated protein kinase kinase kinase kinase 1 (Homo sapiens) (UniProt Q92918); conditions: Compound concentration 1000.0 nM
[21] = biological target: Serine/threonine-protein kinase Nek9 (Homo sapiens) (UniProt Q8TD19); conditions: Compound concentration 1000.0 nM
[22] = tested on: Tyrosine-protein kinase ABL1 (Homo sapiens), P00519 [F317I]; conditions: Compound concentration 1000.0 nM
[23] = biological target: Fibroblast growth factor receptor 1 (Homo sapiens) (UniProt P11362); conditions: Compound concentration 1000.0 nM
[24] = biological target: Dual specificity tyrosine-phosphorylation-regulated kinase 1B (Homo sapiens) (UniProt Q9Y463); conditions: Compound concentration 1000.0 nM
[25] = tested on: Receptor-type tyrosine-protein kinase FLT3 (Homo sapiens), P36888 [UNDEFINED MUTATION]; conditions: Compound concentration 1000.0 nM
[26] = biological target: Mitogen-activated protein kinase kinase kinase 3 (Homo sapiens) (UniProt Q99759); conditions: Compound concentration 1000.0 nM
[27] = biological target: Serine/threonine-protein kinase RIO2 (Homo sapiens) (UniProt Q9BVS4); conditions: Compound concentration 1000.0 nM
[28] = biological target: Ephrin type-B receptor 4 (Homo sapiens) (UniProt P54760); conditions: Compound concentration 1000.0 nM
[29] = biological target: Serine/threonine-protein kinase MARK1 (Homo sapiens) (UniProt Q9P0L2); conditions: Compound concentration 1000.0 nM
[30] = tested on: Mast/stem cell growth factor receptor Kit (Homo sapiens), P10721 [V559D]; conditions: Compound concentration 1000.0 nM
[31] = biological target: Macrophage-stimulating protein receptor (Homo sapiens) (UniProt Q04912); conditions: Compound concentration 1000.0 nM
[32] = biological target: Serine/threonine-protein kinase OSR1 (Homo sapiens) (UniProt O95747); conditions: Compound concentration 1000.0 nM
[33] = tested on: Proto-oncogene tyrosine-protein kinase receptor Ret (Homo sapiens), P07949 [M918T]; conditions: Compound concentration 1000.0 nM
[34] = biological target: Tyrosine-protein kinase ABL1 (Homo sapiens) (UniProt P00519); conditions: Compound concentration 1000.0 nM
[35] = biological target: Phosphatidylinositol 3-kinase C2 domain-containing subunit gamma (Homo sapiens) (UniProt O75747); conditions: Compound concentration 1000.0 nM
[36] = biological target: Dual specificity mitogen-activated protein kinase kinase 7 (Homo sapiens) (UniProt O14733); conditions: Compound concentration 1000.0 nM
[37] = biological target: Glycogen synthase kinase-3 alpha (Homo sapiens) (UniProt P49840); conditions: Compound concentration 1000.0 nM
[38] = biological target: Tyrosine-protein kinase Fyn (Homo sapiens) (UniProt P06241); conditions: Compound concentration 1000.0 nM
[39] = biological target: Serine/threonine-protein kinase LATS2 (Homo sapiens) (UniProt Q9NRM7); conditions: Compound concentration 1000.0 nM
[40] = biological target: Myosin light chain kinase 2, skeletal/cardiac muscle (Homo sapiens) (UniProt Q9H1R3); conditions: Compound concentration 1000.0 nM
[41] = biological target: Calcium/calmodulin-dependent protein kinase type 1B (Homo sapiens) (UniProt Q6P2M8); conditions: Compound concentration 1000.0 nM
[42] = tested on: Receptor-type tyrosine-protein kinase FLT3 (Homo sapiens), P36888 [D835H]; conditions: Compound concentration 1000.0 nM
[43] = biological target: D(3) dopamine receptor (Homo sapiens) (UniProt P35462); conditions: Compound concentration 10.0 uM
[44] = biological target: Protein kinase C theta type (Homo sapiens) (UniProt Q04759); conditions: Compound concentration 1000.0 nM

Chain of Tyrosine-protein kinase ABL1 (Homo sapiens), P00519 [F317I] (P00519 whole entry F317I): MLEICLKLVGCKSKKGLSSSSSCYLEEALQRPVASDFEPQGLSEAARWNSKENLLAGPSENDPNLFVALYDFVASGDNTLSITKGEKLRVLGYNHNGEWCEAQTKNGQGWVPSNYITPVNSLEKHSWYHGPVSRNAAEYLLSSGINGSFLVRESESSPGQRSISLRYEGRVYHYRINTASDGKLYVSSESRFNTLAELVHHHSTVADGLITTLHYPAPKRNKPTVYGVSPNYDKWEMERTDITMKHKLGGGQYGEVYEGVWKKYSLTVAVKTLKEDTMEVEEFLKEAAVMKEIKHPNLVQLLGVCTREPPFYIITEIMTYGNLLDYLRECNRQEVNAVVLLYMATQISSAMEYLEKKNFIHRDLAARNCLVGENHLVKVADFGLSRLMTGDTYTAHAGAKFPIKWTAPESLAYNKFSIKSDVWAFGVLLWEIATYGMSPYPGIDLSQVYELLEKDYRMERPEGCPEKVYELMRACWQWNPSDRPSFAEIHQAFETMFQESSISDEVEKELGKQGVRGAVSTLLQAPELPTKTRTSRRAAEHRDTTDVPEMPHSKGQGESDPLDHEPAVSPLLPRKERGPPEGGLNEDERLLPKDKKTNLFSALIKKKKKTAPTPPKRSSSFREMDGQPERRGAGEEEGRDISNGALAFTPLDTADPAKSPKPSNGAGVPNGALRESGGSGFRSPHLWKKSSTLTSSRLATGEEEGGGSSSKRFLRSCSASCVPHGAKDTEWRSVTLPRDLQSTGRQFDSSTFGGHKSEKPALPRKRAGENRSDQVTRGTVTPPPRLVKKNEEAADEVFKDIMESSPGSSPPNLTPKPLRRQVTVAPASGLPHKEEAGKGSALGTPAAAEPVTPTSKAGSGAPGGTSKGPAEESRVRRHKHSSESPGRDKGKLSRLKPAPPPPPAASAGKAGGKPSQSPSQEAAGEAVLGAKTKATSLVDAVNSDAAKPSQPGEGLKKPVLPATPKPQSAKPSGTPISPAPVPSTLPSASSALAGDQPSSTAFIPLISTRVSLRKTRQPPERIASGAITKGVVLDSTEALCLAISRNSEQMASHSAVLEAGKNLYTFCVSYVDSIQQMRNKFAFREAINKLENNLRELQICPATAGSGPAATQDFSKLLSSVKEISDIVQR
Chain of Macrophage-stimulating protein receptor (Homo sapiens) (Q04912 25-304 limits assumed): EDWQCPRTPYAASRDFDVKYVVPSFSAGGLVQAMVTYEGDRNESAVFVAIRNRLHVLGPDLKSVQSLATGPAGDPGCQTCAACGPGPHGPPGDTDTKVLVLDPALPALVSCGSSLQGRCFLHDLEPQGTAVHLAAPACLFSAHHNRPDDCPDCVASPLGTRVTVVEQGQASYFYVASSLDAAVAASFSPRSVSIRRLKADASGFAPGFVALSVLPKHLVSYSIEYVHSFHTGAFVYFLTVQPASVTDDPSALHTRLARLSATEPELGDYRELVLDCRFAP
Chain of Macrophage-stimulating protein receptor (Homo sapiens) (Q04912 310-1400 limits assumed): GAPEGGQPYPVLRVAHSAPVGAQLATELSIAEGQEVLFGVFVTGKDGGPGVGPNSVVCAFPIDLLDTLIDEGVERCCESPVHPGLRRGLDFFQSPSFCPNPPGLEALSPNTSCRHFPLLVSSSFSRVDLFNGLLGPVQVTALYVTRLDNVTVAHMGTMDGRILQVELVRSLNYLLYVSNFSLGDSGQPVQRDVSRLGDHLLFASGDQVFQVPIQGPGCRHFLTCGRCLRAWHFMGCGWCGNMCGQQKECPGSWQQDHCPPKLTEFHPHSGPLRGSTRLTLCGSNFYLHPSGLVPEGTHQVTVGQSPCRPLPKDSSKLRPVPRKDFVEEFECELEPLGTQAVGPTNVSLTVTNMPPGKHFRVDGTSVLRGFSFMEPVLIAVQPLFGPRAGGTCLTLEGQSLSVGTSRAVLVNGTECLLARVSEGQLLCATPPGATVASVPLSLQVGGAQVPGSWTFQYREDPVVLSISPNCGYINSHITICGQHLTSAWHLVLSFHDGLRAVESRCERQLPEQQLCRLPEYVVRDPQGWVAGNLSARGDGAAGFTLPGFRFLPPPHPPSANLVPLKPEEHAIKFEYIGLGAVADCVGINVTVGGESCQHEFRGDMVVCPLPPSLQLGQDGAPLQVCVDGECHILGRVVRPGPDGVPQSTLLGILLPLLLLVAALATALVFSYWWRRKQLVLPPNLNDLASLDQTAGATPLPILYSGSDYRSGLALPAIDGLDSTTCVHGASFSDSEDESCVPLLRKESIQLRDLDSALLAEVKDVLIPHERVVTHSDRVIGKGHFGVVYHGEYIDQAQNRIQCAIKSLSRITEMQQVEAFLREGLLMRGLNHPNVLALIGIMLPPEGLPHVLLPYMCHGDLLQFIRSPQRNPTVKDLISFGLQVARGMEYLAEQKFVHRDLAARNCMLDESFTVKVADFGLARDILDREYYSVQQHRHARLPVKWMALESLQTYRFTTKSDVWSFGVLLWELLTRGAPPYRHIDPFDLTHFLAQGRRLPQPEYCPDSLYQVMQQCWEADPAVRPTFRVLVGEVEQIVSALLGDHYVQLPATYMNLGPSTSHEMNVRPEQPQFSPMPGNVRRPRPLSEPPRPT
Chain of Myosin light chain kinase 2, skeletal/cardiac muscle (Homo sapiens) (Q9H1R3 whole entry): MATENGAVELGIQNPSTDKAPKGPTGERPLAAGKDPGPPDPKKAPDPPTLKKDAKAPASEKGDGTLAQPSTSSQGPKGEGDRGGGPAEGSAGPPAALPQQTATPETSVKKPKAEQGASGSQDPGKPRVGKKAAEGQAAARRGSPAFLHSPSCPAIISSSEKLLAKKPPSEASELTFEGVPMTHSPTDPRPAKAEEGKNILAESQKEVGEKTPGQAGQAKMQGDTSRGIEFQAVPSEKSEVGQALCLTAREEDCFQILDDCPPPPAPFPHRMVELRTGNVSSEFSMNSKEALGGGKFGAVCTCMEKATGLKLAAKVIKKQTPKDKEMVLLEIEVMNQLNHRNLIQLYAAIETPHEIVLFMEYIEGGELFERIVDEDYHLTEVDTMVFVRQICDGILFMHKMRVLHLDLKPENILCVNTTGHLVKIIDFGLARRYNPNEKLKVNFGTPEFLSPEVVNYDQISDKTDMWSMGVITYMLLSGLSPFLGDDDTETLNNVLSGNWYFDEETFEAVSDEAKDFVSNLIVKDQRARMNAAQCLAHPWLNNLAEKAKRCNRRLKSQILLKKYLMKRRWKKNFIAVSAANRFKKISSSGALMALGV
Chain of Tyrosine-protein kinase ABL1 (Homo sapiens) (P00519 whole entry, the tested form may be a part): as the sequence (P00519 whole entry F317I) above, with I317F counted along it
Chain of Serine/threonine-protein kinase 17B (Homo sapiens) (O94768 whole entry): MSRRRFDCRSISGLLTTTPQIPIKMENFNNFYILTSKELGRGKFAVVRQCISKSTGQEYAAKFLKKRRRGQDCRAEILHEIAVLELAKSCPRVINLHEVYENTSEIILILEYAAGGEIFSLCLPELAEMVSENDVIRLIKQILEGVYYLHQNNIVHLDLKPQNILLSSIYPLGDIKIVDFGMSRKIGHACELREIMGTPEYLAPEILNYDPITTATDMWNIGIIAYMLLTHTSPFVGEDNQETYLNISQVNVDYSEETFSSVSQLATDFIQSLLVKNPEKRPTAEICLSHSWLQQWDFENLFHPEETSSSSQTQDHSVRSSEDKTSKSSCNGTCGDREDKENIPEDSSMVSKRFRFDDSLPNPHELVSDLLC
Chain of Fibroblast growth factor receptor 1 (Homo sapiens) (P11362 22-822 limits assumed): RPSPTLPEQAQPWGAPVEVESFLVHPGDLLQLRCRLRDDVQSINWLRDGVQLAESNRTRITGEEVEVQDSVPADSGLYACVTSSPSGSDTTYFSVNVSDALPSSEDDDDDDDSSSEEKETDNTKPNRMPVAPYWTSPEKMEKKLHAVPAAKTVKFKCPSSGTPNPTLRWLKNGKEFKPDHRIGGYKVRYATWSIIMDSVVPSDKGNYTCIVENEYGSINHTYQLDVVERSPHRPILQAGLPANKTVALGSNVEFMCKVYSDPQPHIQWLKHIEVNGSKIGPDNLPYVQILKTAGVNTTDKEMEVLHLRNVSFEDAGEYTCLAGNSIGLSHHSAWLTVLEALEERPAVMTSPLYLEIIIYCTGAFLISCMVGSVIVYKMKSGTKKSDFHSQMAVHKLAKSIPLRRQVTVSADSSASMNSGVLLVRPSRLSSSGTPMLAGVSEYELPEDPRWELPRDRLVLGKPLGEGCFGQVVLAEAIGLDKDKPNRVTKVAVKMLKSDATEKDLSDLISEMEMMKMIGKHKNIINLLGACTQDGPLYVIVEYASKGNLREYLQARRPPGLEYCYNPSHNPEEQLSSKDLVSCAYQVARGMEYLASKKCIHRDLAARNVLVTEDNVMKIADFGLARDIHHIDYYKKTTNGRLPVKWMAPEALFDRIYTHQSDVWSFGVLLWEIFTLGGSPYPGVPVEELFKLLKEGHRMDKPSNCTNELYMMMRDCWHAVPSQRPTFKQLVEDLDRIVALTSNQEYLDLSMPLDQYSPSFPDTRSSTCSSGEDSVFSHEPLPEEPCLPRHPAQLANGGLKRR
Chain of Mitogen-activated protein kinase kinase kinase 2 (Homo sapiens) (Q9Y2U5 whole entry): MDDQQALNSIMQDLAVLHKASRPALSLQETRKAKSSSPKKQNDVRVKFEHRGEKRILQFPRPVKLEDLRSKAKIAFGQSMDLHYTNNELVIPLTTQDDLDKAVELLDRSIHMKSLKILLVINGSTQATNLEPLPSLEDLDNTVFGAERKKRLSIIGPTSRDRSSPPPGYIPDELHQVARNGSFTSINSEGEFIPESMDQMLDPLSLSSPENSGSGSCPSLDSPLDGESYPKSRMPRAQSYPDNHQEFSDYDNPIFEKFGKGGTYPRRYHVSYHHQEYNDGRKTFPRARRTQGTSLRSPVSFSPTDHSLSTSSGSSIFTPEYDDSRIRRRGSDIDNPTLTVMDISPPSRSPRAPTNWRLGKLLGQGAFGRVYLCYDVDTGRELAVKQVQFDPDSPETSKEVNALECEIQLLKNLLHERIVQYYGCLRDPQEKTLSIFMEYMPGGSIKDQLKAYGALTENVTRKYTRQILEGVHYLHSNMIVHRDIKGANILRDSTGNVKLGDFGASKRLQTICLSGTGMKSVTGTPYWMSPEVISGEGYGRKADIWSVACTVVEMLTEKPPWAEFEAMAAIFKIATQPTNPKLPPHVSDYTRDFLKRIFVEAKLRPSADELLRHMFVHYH

Work on `COc1cc(-c2cn([C@H]3CCc4c(F)cccc4N(CC(F)(F)F)C3=O)nn2)ccc1-n1cnc(C)c1` yielded a residual activity [1] of 100%, a residual activity [2] of 100% and a residual activity [3] of 100%. The residual activity [4] was 100%, the residual activity [5] was 100% and the residual activity [6] was 100%. For the same molecule, the residual activity [7] was 94%, the residual activity [8] was 99% and the inhibition [9] was -7.76%. It also gave a residual activity [10] of 100%, a residual activity [11] of 94% and a residual activity [12] of 96%. It also gave a residual activity [13] of 100%, a residual activity [14] of 100% and a residual activity [15] of 100%. For the same molecule, the residual activity [16] was 100%, the residual activity [17] was 100% and the residual activity [18] was 100%. For the same molecule, the residual activity [19] was 100%, the residual activity [20] was 100% and the residual activity [21] was 100%. It also gave a residual activity [22] of 79%, a residual activity [23] of 100% and a residual activity [24] of 100%. For the same molecule, the residual activity [25] was 100%, the residual activity [26] was 100% and the residual activity [27] was 100%. It also gave a residual activity [28] of 100%, a residual activity [29] of 100% and a residual activity [30] of 100%. It also gave a residual activity [31] of 100%, a residual activity [32] of 100% and a residual activity [33] of 100%. For the same molecule, the residual activity [34] was 100%, the residual activity [35] was 72% and the residual activity [36] was 100%. The residual activity [37] was 100%, the residual activity [38] was 100% and the residual activity [39] was 100%. For the same molecule, the residual activity [40] was 100%, the residual activity [41] was 100% and the residual activity [42] was 98%. It also gave an inhibition [43] of 3.33% and a residual activity [44] of 89%.

Work on `COc1cc(-c2cn([C@H]3CCc4ccccc4N(CC(F)(F)F)C3=O)nn2)ccc1-n1ccc(C)n1` yielded a residual activity [1] of 100%, a residual activity [2] of 97% and a residual activity [3] of 89%. The residual activity [4] was 100%, the residual activity [5] was 85% and the residual activity [6] was 100%. For the same molecule, the residual activity [7] was 100%, the residual activity [8] was 100% and the inhibition [9] was 52.4%. It also gave a residual activity [10] of 100%, a residual activity [11] of 92% and a residual activity [12] of 97%. For the same molecule, the residual activity [13] was 91%, the residual activity [14] was 100% and the residual activity [15] was 91%. It also gave a residual activity [16] of 100%, a residual activity [17] of 93% and a residual activity [18] of 81%. For the same molecule, the residual activity [19] was 85%, the residual activity [20] was 100% and the residual activity [21] was 100%. It also gave a residual activity [22] of 65%, a residual activity [23] of 99% and a residual activity [24] of 100%. It also gave a residual activity [25] of 98%, a residual activity [26] of 88% and a residual activity [27] of 96%. The residual activity [28] was 92%, the residual activity [29] was 99% and the residual activity [30] was 96%. The residual activity [31] was 96%, the residual activity [32] was 91% and the residual activity [33] was 100%. For the same molecule, the residual activity [34] was 75%, the residual activity [35] was 65% and the residual activity [36] was 100%. It also gave a residual activity [37] of 86%, a residual activity [38] of 94% and a residual activity [39] of 69%. The residual activity [40] was 73%, the residual activity [41] was 100% and the residual activity [42] was 100%. It also gave an inhibition [43] of 22% and a residual activity [44] of 94%.
